For 29 compounds, IC50 results are on record in US9708279B2, “2-acylaminothiazoles for the treatment of cancer” (UNIVERSITA′ DEGLI STUDI DI MILANO-BICOCCA, priority 2013, dated 2017).

A word on the IC50: it is the midpoint of a concentration-inhibition curve.

Bounds are passed on as bounds.

The test system of this test is parental untransformed BaF3 cells. Put plainly: Tritiated thymidine uptake cell proliferation assay, parental BaF3. The settings on record: Mus musculus, BaF3, read-out: Parental IC50. In kind it is cell-based. The method, then: Tritiated Thymidine Uptake Cell Proliferation Assay
The parent untransformed BaF3 cells and ALK-negative cells are used as controls. Cells are seeded in U-bottomed 96-well plates at 10 000 cells/well in a volume of 100 μL in supplemented medium. In the case of the parent untransformed BaF3 cells, the medium is supplemented with IL-3. Serial dilutions of inhibitors are added to the appropriate wells and volumes adjusted to 200 μL. Controls were treated with the equivalent volume of vehicle, DMSO, alone. Plates are incubated at 37° C. for 72 h. ^3[H]-thymidine (1 μCiCi/well) is added for the last 8 h of incubation. Cells are harvested on to paper filters and ^3[H]-thymidine incorporation is measured using a β scintillation counter (1430 MicroBeta, Wallac, Turku, Finland). The 50% inhibitory concentration (IC50) is defined as the concentration of inhibitor, expressed in micromolar, that give a 50% decrease in ^3[H]-thymidine uptake compared with controls.

As for `CN1CCN(Cc2ccc(C(=O)Nc3nc(-c4cccc(C#Cc5ccccc5)c4)cs3)cc2)CC1` [Example 1, 4-((4-methylpiperazin-1-yl)methyl)-N-(4-(3-(phenylethynyl)phenyl)thiazol-2-yl)benzamide], the IC50 was determined as 4.7 µM. For `Cc1ccc(C#Cc2cccc(-c3csc(NC(=O)c4ccc(CN5CCN(C)CC5)cc4)n3)c2)cc1` [Example 2, 4-((4-methylpiperazin-1-yl)methyl)-N-(4-(3-(p-tolylethynyl)phenyl)thiazol-2-yl)benzamide] the value was 5.5 µM. As for `COc1ccc(C#Cc2cccc(-c3csc(NC(=O)c4ccc(CN5CCN(C)CC5)cc4)n3)c2)cc1` [Example 3, N-(4-(3-((4-methoxyphenyl)ethynyl)phenyl)thiazol-2-yl)-4-((4-methylpiperazin-1-yl)methyl)benzamide], the figure is 2.3 µM; as for `Cc1ccc(-c2csc(NC(=O)c3ccc(CN4CCN(C)CC4)cc3)n2)cc1C#Cc1ccccc1` [Example 4, N-(4-(4-methyl-3-(phenylethynyl)phenyl)thiazol-2-yl)-4-((4-methylpiperazin-1-yl)methyl)benzamide], 5.3 µM; as for `Cc1ccc(C#Cc2cc(-c3csc(NC(=O)c4ccc(CN5CCN(C)CC5)cc4)n3)ccc2C)cc1` [Example 5, N-(4-(4-methyl-3-(p-tolylethynyl)phenyl)thiazol-2-yl)-4-((4-methylpiperazin-1-yl)methyl)benzamide], 5.3 µM. As for `Cc1ccc(-c2csc(NC(=O)c3ccc(CN4CCN(C)CC4)cc3)n2)cc1C#Cc1ccccc1C(F)(F)F` [Example 7, N-(4-(4-methyl-3-((2-(trifluoromethyl)phenyl)ethynyl)phenyl)thiazol-2-yl)-4-((4-methylpiperazin-1-yl)methyl)benzamide], the figure is 5 µM; as for `COc1ccccc1C#Cc1cc(-c2csc(NC(=O)c3ccc(CN4CCN(C)CC4)cc3)n2)ccc1C` [Example 8, N-(4-(3-((2-methoxyphenyl)ethynyl)-4-methylphenyl)thiazol-2-yl)-4-((4-methylpiperazin-1-yl)methyl)benzamide], 1.5 µM. Turning to `Cc1ccc(C#Cc2ccc(-c3csc(NC(=O)c4ccc(CN5CCN(C)CC5)cc4)n3)cc2C)cc1` [Example 10, N-(4-(3-methyl-4-(p-tolylethynyl)phenyl)thiazol-2-yl)-4-((4-methylpiperazin-1-yl)methyl)benzamide], the IC50 was determined as 3 µM.

For the compound `Cc1cc(-c2csc(NC(=O)c3ccc(CN4CCN(C)CC4)cc3)n2)ccc1C#Cc1ccccc1C(F)(F)F` [Example 11, N-(4-(3-methyl-4-((2-(trifluoromethyl)phenyl)ethynyl)phenyl)thiazol-2-yl)-4-((4-methylpiperazin-1-yl)methyl)benzamide], the IC50 amounted to 3.2 µM. With `CN1CCN(Cc2ccc(C(=O)Nc3nc(-c4cccc(C#Cc5ccccc5C(F)(F)F)c4)cs3)cc2)CC1` [Example 12, 4-((4-methylpiperazin-1-yl)methyl)-N-(4-(3-((2-(trifluoromethyl)phenyl)ethynyl)phenyl)thiazol-2-yl)benzamide], the IC50 amounted to 1.8 µM.

For `CN1CCN(Cc2ccc(C(=O)Nc3nc(-c4ccc(C#Cc5ccccc5C(F)(F)F)c(C#Cc5ccccc5C(F)(F)F)c4)cs3)cc2)CC1` [Example 13, N-(4-(3,4-bis((2-(trifluoromethyl)phenyl)ethynyl)phenyl)thiazol-2-yl)-4-((4-methylpiperazin-1-yl)methyl)benzamide], the IC50 is 3.1 µM. Take `Cc1ccc(-c2csc(NC(=O)c3ccc(CN4CCN(C)CC4)cc3)n2)cc1C#C[Si](C(C)C)(C(C)C)C(C)C` [Example 14, N-(4-(4-methyl-3-((triisopropylsilyl)ethynyl)phenyl)thiazol-2-yl)-4-((4-methylpiperazin-1-yl)methyl)benzamide]: the IC50 is 7.8 µM.

For the compound `Cc1cc(-c2csc(NC(=O)c3ccc(CN4CCN(C)CC4)cc3)n2)ccc1C#C[Si](C(C)C)(C(C)C)C(C)C` [Example 15, N-(4-(3-methyl-4-((triisopropylsilyl)ethynyl)phenyl)thiazol-2-yl)-4-((4-methylpiperazin-1-yl)methyl)benzamide], the IC50 came to 14 µM. As for `CC(C)[Si](C#Cc1ccc(-c2csc(NC(=O)c3ccc(CN4CCN(C)CC4)cc3)n2)cc1C#C[Si](C(C)C)(C(C)C)C(C)C)(C(C)C)C(C)C` [Example 16, N-(4-(3,4-bis((triisopropylsilyl)ethynyl)phenyl)thiazol-2-yl)-4((4-methylpiperazin-1-yl)methyl)benzamide], the figure is greater than 50 µM.

Regarding `CC[Si](C#Cc1cccc(-c2csc(NC(=O)c3ccc(CN4CCN(C)CC4)cc3)n2)c1)(CC)CC` [Example 17, 4-((4-methylpiperazin-1-yl)methyl)-N-(4-(3-((triethylsilyl)ethynyl)phenyl)thiazol-2-yl)benzamide], the IC50 is 0.46 µM. As for `CN1CCN(Cc2ccc(C(=O)Nc3nc(-c4cccc(C#C[Si](C)(C)C)c4)cs3)cc2)CC1` [Example 18, 4-((4-methylpiperazin-1-yl)methyl)-N-(4-(3-((trimethylsilyl)ethynyl)phenyl)thiazol-2-yl)benzamide], the figure is 0.45 µM; as for `CN1CCN(Cc2ccc(C(=O)Nc3nc(-c4cccc(C#CC5=CCCCC5)c4)cs3)cc2)CC1` [Example 19, N-(4-(3-(cyclohex-1-en-1-ylethynyl)phenyl)thiazol-2-yl)-4-((4-methylpiperazin-1-yl)methyl)benzamide], 0.49 µM. Take `CCCCC#Cc1cccc(-c2csc(NC(=O)c3ccc(CN4CCN(C)CC4)cc3)n2)c1` [Example 20, N-(4-(3-(hex-1-yn-1-yl)phenyl)thiazol-2-yl)-4-((4-methylpiperazin-1-yl)methyl)benzamide]: the IC50 was 7.3 µM.

As to `CN1CCN(Cc2ccc(C(=O)Nc3nc(-c4cccc(C#CCO[Si](c5ccccc5)(c5ccccc5)C(C)(C)C)c4)cs3)cc2)CC1` [Example 21, N-(4-(3-(3-((tert-butyldiphenylsilyl)oxy)prop-1-yn-1-yl)phenyl)thiazol-2-yl)-4-((4-methylpiperazin-1-yl)methyl)benzamide], the IC50 was found to be 12 µM. As to `CC(C)[Si](OCC#Cc1cccc(-c2csc(NC(=O)c3ccc(CN4CCN(C)CC4)cc3)n2)c1)(C(C)C)C(C)C` [Example 22, 4-((4-methylpiperazin-1-yl)methyl)-N-(4-(3-(3-((triisopropylsilyl)oxy)prop-1-yn-1-yl)phenyl)thiazol-2-yl)benzamide], the IC50 was 8.5 µM. For `CN1CCN(Cc2ccc(C(=O)Nc3nc(-c4cccc(C#CCO[Si](C)(C)C(C)(C)C)c4)cs3)cc2)CC1` [Example 23, N-(4-(3-(3-((tert-butyldimethylsilyl)oxy)prop-1-yn-1-yl)phenyl)thiazol-2-yl)-4-((4-methylpiperazin-1-yl)methyl)benzamide], the IC50 is 5.9 µM.

Turning to `CN1CCN(Cc2ccc(C(=O)Nc3nc(-c4cccc(C#C[Si](C)(C)C(C)(C)C)c4)cs3)cc2)CC1` [Example 24, N-(4-(3-((tert-butyldimethylsilyl)ethynyl)phenyl)thiazol-2-yl)-4-((4-methylpiperazin-1-yl)methyl)benzamide], the IC50 is 2.4 µM.

Consider `CN1CCN(Cc2ccc(C(=O)Nc3nc(-c4cccc(C#C[Si](c5ccccc5)(c5ccccc5)C(C)(C)C)c4)cs3)cc2)CC1` [Example 25, N-(4-(3-((tert-butyldiphenylsilyl)ethynyl)phenyl)thiazol-2-yl)-4-((4-methylpiperazin-1-yl)methyl)benzamide], for which the IC50 came out at 12 µM. `CC(C)[Si](C#Cc1cccc(-c2csc(NC(=O)c3ccc(-c4ccc(C(=O)N5CCN(C)CC5)cc4)o3)n2)c1)(C(C)C)C(C)C` [Example 26, 5-(4-(4-methylpiperazine-1-carbonyl)phenyl)-N-(4-(3-((triisopropylsilyl)ethynyl)phenyl)thiazol-2-yl)furan-2-carboxamide]: the IC50 came to 11 µM. As for `CN1CCN(C(=O)c2ccc(-c3ccc(C(=O)Nc4nc(-c5cccc(C#C[Si](C)(C)C(C)(C)C)c5)cs4)o3)cc2)CC1` [Example 27, N-(4-(3-((tert-butyldimethylsilyl)ethynyl)phenyl)thiazol-2-yl)-5-(4-(4-methylpiperazine-1-carbonyl)phenyl)furan-2-carboxamide], the figure is 2.3 µM; as for `CC(C)[Si](OCC#Cc1cccc(-c2csc(NC(=O)c3ccc(-c4ccc(C(=O)N5CCN(C)CC5)cc4)o3)n2)c1)(C(C)C)C(C)C` [Example 28, 5-(4-(4-methylpiperazine-1-carbonyl)phenyl)-N-(4-(3-(3-((triisopropylsilyl)oxy)prop-1-yn-1-yl)phenyl)thiazol-2-yl)furan-2-carboxamide], 3.7 µM; as for `CN1CCN(C(=O)c2ccc(-c3ccc(C(=O)Nc4nc(-c5cccc(C#Cc6ccccc6C(F)(F)F)c5)cs4)o3)cc2)CC1` [Example 29, 5-(4-(4-methylpiperazine-1-carbonyl)phenyl)-N-(4-(3-((2-(trifluoromethyl)phenyl)ethynyl)phenyl)thiazol-2-yl)furan-2-carboxamide], 10 µM. As for `CN1CCN(Cc2ccc(C(=O)Nc3nc(-c4cccc(C#CCOC(c5ccccc5)(c5ccccc5)c5ccccc5)c4)cs3)cc2)CC1` [Example 30, 4-((4-methylpiperazin-1-yl)methyl)-N-(4-(3-(3-(trityloxy)prop-1-yn-1-yl)phenyl)thiazol-2-yl)benzamide], the figure is 10 µM. As to `CN1CCN(Cc2ccc(C(=O)Nc3nc(-c4cccc(C#Cc5ccccc5F)c4)cs3)cc2)CC1` [Example 31, N-(4-(3-((2-fluorophenyl)ethynyl)phenyl)thiazol-2-yl)-4-((4-methylpiperazin-1-yl)methyl)benzamide], the IC50 stood at 2.2 µM.
